According to patent publication US20060057614A1 (priority 2004, published 2006):

B1: Alexa 647 conjugated Fasciculin 2 (ligand)
chain: TMCYSHTTTSRAILTNCGENSCYRKSRRHPPKMVLGRGCGCPPGDDNLEVKCCTSPDKCNY
notes: Bought reagent; also called FasII

Tests used:
α3β2 nAChR = α3β2 nAChR (Homo sapiens, UniProt P17787+P32297); conditions: cited from earlier work
α7nAChR = α7nAChR (Homo sapiens, UniProt P36544); conditions: cited from earlier work
α1β1γδ nAChR = α1β1γδ nAChR (Homo sapiens, UniProt P02708+P07510+Q07001); conditions: cited from earlier work
α1β1γδ nAChR, sequence (P11230 24-501): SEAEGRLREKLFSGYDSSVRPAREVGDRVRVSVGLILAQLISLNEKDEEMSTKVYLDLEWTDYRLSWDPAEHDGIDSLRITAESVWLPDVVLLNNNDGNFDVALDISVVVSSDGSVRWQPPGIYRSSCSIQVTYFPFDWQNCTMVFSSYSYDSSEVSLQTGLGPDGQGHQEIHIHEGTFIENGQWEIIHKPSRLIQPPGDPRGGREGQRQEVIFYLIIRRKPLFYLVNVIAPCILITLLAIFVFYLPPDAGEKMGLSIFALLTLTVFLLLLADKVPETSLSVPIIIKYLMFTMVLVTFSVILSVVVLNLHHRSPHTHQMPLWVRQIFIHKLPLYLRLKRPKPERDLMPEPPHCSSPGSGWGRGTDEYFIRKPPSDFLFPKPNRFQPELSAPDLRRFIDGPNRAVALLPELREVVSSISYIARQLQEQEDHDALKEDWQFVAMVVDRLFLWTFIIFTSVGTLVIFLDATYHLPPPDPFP
α1β1γδ nAChR, sequence (P02708 21-457): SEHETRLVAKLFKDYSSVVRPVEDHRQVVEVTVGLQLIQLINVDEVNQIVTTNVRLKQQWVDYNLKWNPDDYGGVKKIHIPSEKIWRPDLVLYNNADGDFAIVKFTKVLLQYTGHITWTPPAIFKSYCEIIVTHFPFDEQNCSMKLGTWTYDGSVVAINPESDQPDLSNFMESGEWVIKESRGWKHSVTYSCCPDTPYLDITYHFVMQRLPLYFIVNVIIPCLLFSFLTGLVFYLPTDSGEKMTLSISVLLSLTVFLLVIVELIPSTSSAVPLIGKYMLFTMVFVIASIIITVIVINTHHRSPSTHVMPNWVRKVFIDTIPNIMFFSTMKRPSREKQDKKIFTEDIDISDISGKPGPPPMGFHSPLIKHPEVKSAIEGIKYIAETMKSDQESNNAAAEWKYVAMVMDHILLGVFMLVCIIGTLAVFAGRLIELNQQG
α1β1γδ nAChR, sequence (Q07001 22-517): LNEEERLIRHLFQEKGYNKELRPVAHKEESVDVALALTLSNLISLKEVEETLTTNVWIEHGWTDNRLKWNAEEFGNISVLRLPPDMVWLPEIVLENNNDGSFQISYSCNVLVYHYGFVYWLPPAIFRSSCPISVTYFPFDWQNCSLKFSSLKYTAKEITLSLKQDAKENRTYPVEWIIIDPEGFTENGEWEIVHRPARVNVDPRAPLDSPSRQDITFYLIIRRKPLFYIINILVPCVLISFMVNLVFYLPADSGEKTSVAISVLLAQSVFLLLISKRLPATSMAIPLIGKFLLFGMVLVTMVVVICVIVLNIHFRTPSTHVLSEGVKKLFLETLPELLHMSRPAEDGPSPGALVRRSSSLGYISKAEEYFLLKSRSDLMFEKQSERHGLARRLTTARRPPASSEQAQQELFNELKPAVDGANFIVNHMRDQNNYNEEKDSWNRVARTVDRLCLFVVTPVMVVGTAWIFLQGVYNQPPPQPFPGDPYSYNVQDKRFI
α1β1γδ nAChR, sequence (P07510 23-517): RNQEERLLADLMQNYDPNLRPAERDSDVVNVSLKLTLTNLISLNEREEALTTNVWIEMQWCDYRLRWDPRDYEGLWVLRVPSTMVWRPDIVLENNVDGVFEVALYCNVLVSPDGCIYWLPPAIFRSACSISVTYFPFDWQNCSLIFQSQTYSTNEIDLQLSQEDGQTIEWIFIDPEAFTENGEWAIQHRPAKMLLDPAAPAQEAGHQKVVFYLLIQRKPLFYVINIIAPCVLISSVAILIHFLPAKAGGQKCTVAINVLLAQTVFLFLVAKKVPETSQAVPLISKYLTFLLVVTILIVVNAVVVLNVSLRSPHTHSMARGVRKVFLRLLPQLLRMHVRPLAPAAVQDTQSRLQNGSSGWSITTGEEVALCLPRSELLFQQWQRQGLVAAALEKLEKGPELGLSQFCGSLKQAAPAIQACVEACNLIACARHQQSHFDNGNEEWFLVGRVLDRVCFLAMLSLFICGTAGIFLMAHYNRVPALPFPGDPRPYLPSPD

α4β2 nAChR = α4β2 nAChR (Homo sapiens, UniProt P17787+P43681); conditions: cited from earlier work
α4β2 nAChR, sequence (P43681 29-627): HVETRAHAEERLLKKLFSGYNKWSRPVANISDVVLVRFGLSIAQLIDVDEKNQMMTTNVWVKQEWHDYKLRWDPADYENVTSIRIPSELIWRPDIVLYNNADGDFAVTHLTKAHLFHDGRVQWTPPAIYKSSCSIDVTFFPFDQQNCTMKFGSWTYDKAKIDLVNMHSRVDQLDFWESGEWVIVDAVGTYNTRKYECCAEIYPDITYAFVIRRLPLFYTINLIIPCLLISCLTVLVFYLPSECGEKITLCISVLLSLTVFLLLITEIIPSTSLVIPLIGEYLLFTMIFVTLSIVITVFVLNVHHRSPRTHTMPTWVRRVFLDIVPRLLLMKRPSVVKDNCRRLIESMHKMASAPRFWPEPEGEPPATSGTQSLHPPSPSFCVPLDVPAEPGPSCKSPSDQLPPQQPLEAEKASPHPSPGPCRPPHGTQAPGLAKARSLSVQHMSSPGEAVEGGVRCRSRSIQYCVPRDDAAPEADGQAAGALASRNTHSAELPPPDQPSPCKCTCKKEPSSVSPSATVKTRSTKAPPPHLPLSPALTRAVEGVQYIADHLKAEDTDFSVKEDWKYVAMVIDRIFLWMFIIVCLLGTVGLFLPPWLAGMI
α4β2 nAChR, sequence (P17787 26-502): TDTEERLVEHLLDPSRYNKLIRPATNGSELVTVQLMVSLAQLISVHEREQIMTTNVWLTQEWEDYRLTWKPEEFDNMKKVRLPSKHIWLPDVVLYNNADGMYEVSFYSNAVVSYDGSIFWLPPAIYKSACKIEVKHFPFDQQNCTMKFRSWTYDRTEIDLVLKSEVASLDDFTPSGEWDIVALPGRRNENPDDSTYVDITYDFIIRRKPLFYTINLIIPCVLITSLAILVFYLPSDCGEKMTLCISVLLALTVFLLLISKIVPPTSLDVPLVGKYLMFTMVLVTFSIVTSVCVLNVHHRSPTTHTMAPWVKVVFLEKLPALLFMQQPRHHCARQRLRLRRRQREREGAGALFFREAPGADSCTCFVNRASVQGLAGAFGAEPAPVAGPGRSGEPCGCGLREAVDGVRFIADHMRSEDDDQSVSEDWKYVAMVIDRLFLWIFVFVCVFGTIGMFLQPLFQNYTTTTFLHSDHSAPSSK

[1] = molecular target: muscle α1β1γδ nicotinic acetylcholine receptor (expressed in Xenopus oocytes); experiment: cell-based or functional assay
[2] = molecular target: T1, zebrafish acetylcholinesterase (synaptic, in muscle) (zebrafish, UniProt Q9DDE3 24-634)
T1 construct: whole, on cells; also called synaptic acetylcholinesterase

α7nAChR, sequence (P36544 23-502 limits assumed): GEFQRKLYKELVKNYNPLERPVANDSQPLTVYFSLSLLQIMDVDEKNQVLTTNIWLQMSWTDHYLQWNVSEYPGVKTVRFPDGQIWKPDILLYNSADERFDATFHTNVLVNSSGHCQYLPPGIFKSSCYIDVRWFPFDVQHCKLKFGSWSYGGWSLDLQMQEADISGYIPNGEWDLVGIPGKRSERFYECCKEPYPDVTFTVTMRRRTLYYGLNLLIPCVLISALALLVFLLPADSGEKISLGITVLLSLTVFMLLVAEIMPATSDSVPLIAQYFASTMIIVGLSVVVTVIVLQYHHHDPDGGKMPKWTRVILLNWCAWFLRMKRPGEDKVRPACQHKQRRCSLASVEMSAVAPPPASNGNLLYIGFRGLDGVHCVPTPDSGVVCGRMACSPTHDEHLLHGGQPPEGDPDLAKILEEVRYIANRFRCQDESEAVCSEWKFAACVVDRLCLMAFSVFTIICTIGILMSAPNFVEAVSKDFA
α3β2 nAChR, sequence (P32297 32-505 limits assumed): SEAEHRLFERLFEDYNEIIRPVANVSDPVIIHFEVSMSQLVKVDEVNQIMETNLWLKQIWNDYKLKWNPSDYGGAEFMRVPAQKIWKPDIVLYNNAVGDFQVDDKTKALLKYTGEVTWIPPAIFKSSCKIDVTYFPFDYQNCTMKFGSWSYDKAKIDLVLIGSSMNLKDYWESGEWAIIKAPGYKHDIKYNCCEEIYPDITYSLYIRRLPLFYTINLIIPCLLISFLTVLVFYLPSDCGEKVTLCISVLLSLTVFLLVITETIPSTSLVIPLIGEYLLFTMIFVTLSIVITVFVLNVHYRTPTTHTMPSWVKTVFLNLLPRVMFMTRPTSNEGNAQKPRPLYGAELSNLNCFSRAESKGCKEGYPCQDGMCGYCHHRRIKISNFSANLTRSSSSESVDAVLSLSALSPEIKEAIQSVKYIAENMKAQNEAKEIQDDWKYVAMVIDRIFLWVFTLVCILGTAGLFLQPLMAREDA
α3β2 nAChR, sequence (P17787 26-502 limits assumed): as the sequence (P17787 26-502) above

Molecule | Affinity (α7nAChR) | Affinity (α1β1γδ nAChR) | Affinity (α4β2 nAChR) | also measured
α-conotoxin MII |  |  |  | Affinity (α3β2 nAChR): 0.5 nM
α-bungarotoxin | 0.95 nM | 0.4 nM | 100 µM | 
tethered α-bungarotoxin |  |  |  | average peak ACh current, Xenopus oocytes (receptor alone: 8.46 +/-3.7 µA) [1]: 0 µA
κ-bungartotoxin | 1 to 12 nM | 1000 nM | >0.1 µM | 
B1 |  |  |  | binding result [2]: binds
